Measurements as given in patent publication US20110306580A1 (DONG WHA PHARMACEUTICAL CO ., LTD., priority 2009, published 2011).

Tested on: ROS17/2.8 cells
Experiment: Cell growth of ROS17/2.8 cells by the MTT method (formed formazan)
Type: cell-based, rat
Conditions: for activity at 0.02 µM: Rattus norvegicus, 2×10^−5M Test Compound solution diluted 1000 fold, read-out: Amount of formed formazan, Solution 8 (Test Compound alone); for activity at 0.02 µM / Amount of formed formazan, Solution 10 (a group of a drug combination): percentage to Solution 7 addition group, about 48 hours, average ± standard deviation of four wells; for Relative index of Solution 10 (a group of a drug combination) / Amount of formed formazan, Solution 10 (a group of a drug combination): Test Compound in combination with 1α,25-dihydroxyvitamin D3; for Relative index of Solution 10 (a group of a drug combination) / Relative index of Solution 8 (Test Compound alone): amount of formed formazan, Solution 7 = 1.00
Experimental: 100 μL of a 10% FCS-αMEM comprising either DMSO and ethanol (referred to as Solution 7, hereinafter), a Test Compound solution and ethanol (referred to as Solution 8, hereinafter), a 1α,25-dihydroxyvitamin D3 solution and DMSO (referred to as Solution 9, hereinafter) or a Test Compound solution and the 1α,25-dihydroxyvitamin D3 solution (referred to as Solution 10, hereinafter) was dispensed. The ROS17/2.8 cells were inoculated to a medium at a density of 5×10^3 cells/100 μL/well. After culture of the cells for about 48 hours, the effect of Test Compound and 1α,25-dihydroxyvitamin D3 on the cell growth of the ROS17/2.8 cells was evaluated using the MTT method. Namely, after culture of the cells for about 44 hours, an MTT solution (3-[4,5-dimethylthiazol-2-yl]-2,5-diphenyltetrazolium bromide 2 mg/mL) was added in an amount of 25 μL/well, and the cells were further cultured for four hours. After the medium was removed, DMSO was added in an amount of 100 μL/well so as to dissolve the formed formazan. The amount of the formed formazan was determined by measuring the absorbance (at 560 nm) of the solution by a microplate reader.
The 10% FCS-αMEM comprising Solution 7 was prepared by diluting DMSO by 1000 fold with the 10% FCS-αMEM, and diluting ethanol by 10000 fold with the 10% FCS-αMEM. The 10% FCS-αMEM comprising Solution 8 was prepared by diluting a 2×10^−5M Test Compound solution by 1000 fold with the 10% FCS-αMEM, and diluting ethanol by 10000 fold with the 10% FCS-αMEM. The 10% FCS-αMEM comprising Solution 9 was prepared by diluting 2×10^−3M 1α,25-dihydroxyvitamin D3 solution by 10000 fold with the 10% FCS-αMEM, and diluting DMSO by 1000 fold with the 10% FCS-αMEM. The 10% FCS-αMEM comprising Solution 10 was prepared by diluting a 2×10^−5M Test Compound solution by 1000 fold with the 10% FCS-αMEM, and diluting 2×10^−3M 1α,25-dihydroxyvitamin D3 solution by 10000 fold with the 10% FCS-αMEM.
The amount of the formed formazan in each solution addition group was obtained in terms of a percentage to the average value of the amounts of formed formazan in four wells in a Solution 7 addition group. All the determined values were shown in terms of the average value±standard deviation of the four wells of each solution addition group.

Structure (SMILES) | activity at 0.02 µM [%] | Relative index of Solution 10 (a group of a drug combination) | Amount of formed formazan, Solution 10 (a group of a drug combination) | Relative index of Solution 8 (Test Compound alone)
CNc1nc(-c2ccc(OCCCCCOc3ccc(/C(N)=N/O)cc3)cc2)c(CC2CCCC2)s1 [Compound 6, N-hydroxy-4-{5-[4-(5-cyclopentylmethyl-2-methylamino-1,3-thiazol-4-yl)phenoxy]pentoxy}benzamidine] | 103 ± 2.5 | 1.13 | 113 ± 1.7 ## % | 1.03
Cc1nc(-c2ccc(OCCCCCOc3ccc(/C(N)=N/O)cc3)cc2)c(CCn2ccnc2)s1 [Compound 23, N-hydroxy-4-{5-[4-(5-(2-(imidazol-1-yl)ethyl)-2-methyl-1,3-thiazol-4-yl)phenoxy]pentoxy}benzamidine] | 107 ± 5.5 | 1.23 | 123 ± 10.2 # % | 1.07
Cc1nc(-c2ccc(OCc3cccc(COc4ccc(/C(N)=N/O)cc4)c3)cc2)c(C(C)C)s1 [Compound 22, N-hydroxy-4-{3-[4-(5-isopropyl-2-methyl-1,3-thiazol-4-yl)phenoxymethyl]benzyloxy}benzamidine] | 110 ± 4.1 | 1.22 | 122 ± 2.1 ## % | 1.10
CCN(C)c1nc(-c2ccc(OCCCCCOc3ccc(/C(N)=N/O)cc3)cc2)c(CN2CCOCC2)s1 [Compound 33, N-hydroxy-4-{5-[4-{2-ethylmethylamino-5-(morpholin-4-ylmethyl)-1,3-thiazol-4-yl)phenoxy]pentoxy}benzamidine] | 106 ± 1.7 | 1.13 | 113 ± 1.9 ## % | 1.06
CC(C)c1nc(-c2ccc(OCCCCCOc3ccc(/C(N)=N/O)cc3)cc2)c(CCN(C(=O)c2ccncc2)C2CC2)s1 [Compound 30, N-hydroxy-4-{5-[4-(5-(2-(cyclopropyl(pyridin-4-carbonyl)amino)ethyl}-2-isopropyl-1,3-thiazol-4-yl)phenoxy]pentoxy}benzamidine] | 99 ± 5.3 | 1.13 | 113 ± 1.2 ## % | 0.99
CC(C)c1sc(N(C)Cc2cccnc2)nc1-c1ccc(OCCCCCOc2ccc(/C(N)=N/O)cc2)cc1 [Compound 12, N-hydroxy-4-{5-[4-(5-isopropyl-2-(methyl(pyridin-3-yl-methyl)amino)-1,3-thiazol-4-yl)phenoxy]pentoxy}benzamidine] | 105 ± 3 | 1.15 | 115 ± 4.3 # % | 1.05
CCCN(CCC)c1nc(-c2ccc(OCCCCCOc3ccc(/C(N)=N/O)cc3)cc2)c(C(C)C)s1 [Compound 16, N-hydroxy-4-{5-[4-(5-isopropyl-2-dipropylamino-1,3-thiazol-4-yl)phenoxy]pentoxy}benzamidine] | 107 ± 1.3 | 1.18 | 118 ± 3.7 # % | 1.07
Cc1sc(N(C)Cc2ccccc2)nc1-c1ccc(OCCCCCOc2ccc(/C(N)=N/O)cc2)cc1 [Compound 8, N-hydroxy-4-{5-[4-(2-benzylmethylamino-5-methyl-1,3-thiazol-4-yl)phenoxy]pentoxy}benzamidine] | 102 ± 4.9 | 1.15 | 115 ± 2.3 ## % | 1.02
Cc1sc(N(C)CCO)nc1-c1ccc(OCCCCCOc2ccc(/C(N)=N/O)cc2)cc1 [Compound 7] | 109 ± 3.2 | 1.20 | 120 ± 2.3 ## % | 1.09
CN(C)CCc1sc(C2CCCCC2)nc1-c1ccc(OCCCCCOc2ccc(/C(N)=N/O)cc2)cc1 [Compound 28, N-hydroxy-4-{5-[4-(2-cyclohexyl-5-(2-(dimethylamino)ethyl)-1,3-thiazol-4-yl)phenoxy]pentoxy}benzamidine] | 99 ± 3.5 | 1.11 | 111 ± 2.0 # % | 0.99
N/C(=N\O)c1ccc(OCCCCCOc2ccc(-c3nc(-c4cccnc4)sc3Cc3ccccc3)cc2)cc1 [Compound 2, N-hydroxy-4-{5-[4-(5-benzyl-2-(pyridin-3-yl)-1,3-thiazol-4-yl]phenoxy]pentoxy}benzamidine] | 103 ± 3.1 | 1.17 | 117 ± 2.6 # % | 1.03
CNC(=O)c1sc(N)nc1-c1ccc(OCCCCCOc2ccc(/C(N)=N/O)cc2)cc1 [Compound 31, N-hydroxy-4-{5-[4-(2-amino-5-(N-methylcarbamoyl)-1,3-thiazol-4-yl)phenoxy]pentoxy}benzamidine] | 101 ± 2.9 | 1.10 | 110 ± 0.4 # % | 1.01
CCCN(CCC)c1nc(-c2ccc(OCCCCCOc3ccc(/C(N)=N/O)cc3)cc2)c(CC2CCCC2)s1 [Compound 14, N-hydroxy-4-{5-[4-(5-cyclopentylmethyl-2-dipropylamino-1,3-thiazol-4-yl)phenoxy]pentoxy}benzamidine] | 103 ± 2.5 | 1.13 | 113 ± 1.3 # % | 1.03
CN(CCN1CCOCC1)c1nc(-c2ccc(OCCCCCOc3ccc(/C(N)=N/O)cc3)cc2)c(C2CCCC2)s1 [Compound 15, N-hydroxy-4-{5-[4-(5-cyclopentyl-2-(methyl(2-(4-morpholino)ethyl)amino)-1,3-thiazol-4-yl)phenoxy]pentoxy}benzamidine] | 103 ± 3 | 1.15 | 115 ± 0.8 ## % | 1.03
